Our source for the Kd values is paper PMC9645410 (Chemical Science, 2022).

The target in this test is GFPxm163 (Aequorea macrodactyla, UniProt Q8WTC8). Nature of the test: fluorescence quenching titration. It counts as binding.
Chain of GFPxm163 (Q8WTC8 1-238): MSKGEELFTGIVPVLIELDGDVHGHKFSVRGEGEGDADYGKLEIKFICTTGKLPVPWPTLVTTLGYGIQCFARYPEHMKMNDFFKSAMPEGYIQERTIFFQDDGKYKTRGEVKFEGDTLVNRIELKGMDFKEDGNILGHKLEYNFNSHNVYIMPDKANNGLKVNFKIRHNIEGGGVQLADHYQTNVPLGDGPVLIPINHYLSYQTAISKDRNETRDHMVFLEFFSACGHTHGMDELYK
For `Br` [bromide], binding was put at a Kd of 46.2 ± 5.3 mM.

The molecule `I` [iodide] displayed a Kd of 6.4 ± 0.1 mM.

Molecule `O=[N+]([O-])O` [nitrate] gave a Kd of 24.1 ± 0.8 mM. This Kd is about 3.8-fold higher than that of the molecule before.
